Results on twelve compounds are retold here after ChEMBL document CHEMBL1201862, “PubChem BioAssay data set” (2004).

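Dose response: 5 concentrations. Exposure: 48 h. Format: 96-well plates. Endpoint: linear interpolation; highest concentration if not reached. GI50 is the concentration that inhibits growth by half.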 Calls of active or inactive are those of the source. No stated cut-off is given here; in the data, active = GI50 up to about 1.1 µM and inactive = higher.

Among the test systems are CAKI-1; COLO 205; DMS-114; HCC 2998; HL-60; HOP-62; MOLT-4; Malme-3M; NCI-H226; OVCAR-4; RXF 393; SK-OV-3; SN12C; SNB-75; U-251; OVCAR-3; SF-295.
What all share (test): growth of human tumour cells (NCI), 48 h

Turning to `CC(=O)OC1(C#N)CC2OC1C1C2N1C(=O)c1ccccc1` (configuration not stated), the GI50 in the experiment with CAKI-1, in the experiment on COLO 205, in the experiment on DMS-114, in the experiment with HCC 2998, in the experiment on HL-60 and with HOP-62 was > 100 µM (inactive) each time. Also, the GI50 in the experiment on MOLT-4, in the experiment with Malme-3M, in the experiment on NCI-H226, with OVCAR-4, in the experiment with RXF 393 and with SK-OV-3 was > 100 µM (inactive) each time. The GI50 in the experiment on SN12C, in the experiment on SNB-75 and in the experiment on U-251 was > 100 µM (inactive) each time.
As for `NC(=S)N1N=C2c3ccccc3CC[C@H]2[C@@H]1c1ccc(Cl)cc1`, the GI50 with COLO 205 was 17.9 µM (inactive); in the experiment on DMS-114 it was 23.9 µM (inactive); in the experiment with HCC 2998 it was 36.7 µM (inactive); in the experiment with HL-60, 17.6 µM (inactive); in the experiment with HOP-62 it was 30.1 µM (inactive); in the experiment with MOLT-4, 18.9 µM (inactive). Also, the GI50 with Malme-3M is 19.4 µM (inactive); in the experiment on NCI-H226, 16.7 µM (inactive); with OVCAR-3, 28.2 µM (inactive); with OVCAR-4, 30.8 µM (inactive); in the experiment with RXF 393, 30 µM (inactive); in the experiment on SF-295, 26.7 µM (inactive). In addition, the GI50 in the experiment on SK-OV-3 is 36.9 µM (inactive); with SN12C it was 30.6 µM (inactive); with U-251, 37.8 µM (inactive).
Turning to `CCCOC(=O)C1C(c2ccc(OC)cc2)NC(c2ccc(OC)cc2)C(C(=O)OCCC)S1(=O)=O` (configuration not stated), the GI50 was > 10 µM (inactive) with CAKI-1; > 10 µM (inactive) in the experiment on COLO 205; > 10 µM (inactive) in the experiment with DMS-114; > 10 µM (inactive) in the experiment on HCC 2998; > 100 µM (inactive) with HL-60; > 10 µM (inactive) in the experiment on HOP-62. Also, the GI50 in the experiment on MOLT-4, in the experiment on Malme-3M, in the experiment with NCI-H226, in the experiment on OVCAR-3, in the experiment on OVCAR-4 and with RXF 393 was > 10 µM (inactive) each time. Further, the GI50 with SF-295 is > 10 µM (inactive); in the experiment on SK-OV-3 it was > 100 µM (inactive); with SN12C, > 10 µM (inactive); with SNB-75, > 10 µM (inactive); in the experiment with U-251, > 10 µM (inactive).
As to `CCCCN[C@H]1C2C3CC4C5CC(C42)C1(C)C53` (some centres not stated), the GI50 in the experiment on CAKI-1, in the experiment on COLO 205, in the experiment on DMS-114, with HCC 2998, in the experiment with HL-60 and with HOP-62 was > 100 µM (inactive) throughout. Besides, the GI50 with MOLT-4, with Malme-3M, in the experiment with NCI-H226, in the experiment with OVCAR-3, with OVCAR-4 and with RXF 393 was > 100 µM (inactive) in each case. The GI50 with SF-295, in the experiment with SK-OV-3, in the experiment with SN12C, in the experiment with SNB-75 and in the experiment with U-251 was > 100 µM (inactive) in each case.
For `COc1cc2c(oc(=O)c3c4occc4cc(OC)c23)c2cccc(OCc3ccccc3)c12`, the GI50 in the experiment on CAKI-1 was > 100 µM (inactive); with COLO 205, > 100 µM (inactive); in the experiment on DMS-114, > 100 µM (inactive); with HCC 2998, > 100 µM (inactive); in the experiment on HL-60, 65.8 µM (inactive); in the experiment on HOP-62, > 100 µM (inactive). In addition, the GI50 is > 100 µM (inactive) in the experiment with MOLT-4; 35.6 µM (inactive) with Malme-3M; > 100 µM (inactive) in the experiment with NCI-H226; > 100 µM (inactive) in the experiment with OVCAR-3; 44.4 µM (inactive) with OVCAR-4; 78.3 µM (inactive) in the experiment with RXF 393. The GI50 in the experiment on SF-295 was 88.9 µM (inactive); in the experiment with SK-OV-3, > 100 µM (inactive); in the experiment with SN12C, > 100 µM (inactive); in the experiment on SNB-75, 40 µM (inactive); in the experiment on U-251, > 100 µM (inactive).
Take `COC(=O)CCC(NC(=S)N/N=C(\C)c1ccc[nH]1)C(=O)OC` (configuration not stated): the GI50 in the experiment on COLO 205, in the experiment with DMS-114, in the experiment on HCC 2998, in the experiment with HL-60, in the experiment with HOP-62 and with MOLT-4 was > 100 µM (inactive) each time. The GI50 in the experiment on Malme-3M, with NCI-H226, with OVCAR-3, in the experiment on OVCAR-4, with RXF 393 and in the experiment on SF-295 was > 100 µM (inactive) throughout. The GI50 in the experiment with SK-OV-3, in the experiment with SN12C, with SNB-75 and in the experiment with U-251 was > 100 µM (inactive) in each case.
As for `COc1ccc(CCN2CCC(C#N)(c3ccc(OC)c(OC)c3)CC2)cc1OC`, the GI50 with COLO 205 was > 100 µM (inactive); in the experiment on DMS-114 it was 60.4 µM (inactive); in the experiment on HCC 2998 it was > 100 µM (inactive); in the experiment with HL-60 it was > 100 µM (inactive); in the experiment on HOP-62, > 100 µM (inactive); with MOLT-4 it was > 100 µM (inactive). The GI50 with Malme-3M was > 100 µM (inactive); in the experiment on NCI-H226 it was > 100 µM (inactive); with OVCAR-3, > 100 µM (inactive); in the experiment on OVCAR-4 it was > 100 µM (inactive); in the experiment with RXF 393, 49.1 µM (inactive); in the experiment with SF-295 it was 79.6 µM (inactive). For the same compound, the GI50 in the experiment with SK-OV-3 is > 100 µM (inactive); with SN12C it was > 100 µM (inactive); in the experiment on SNB-75, 30.5 µM (inactive); with U-251, > 100 µM (inactive).
For the compound `O=C(/C(=C\c1ccccc1)CN1CCOCC1)c1ccc(Br)cc1`, the GI50 was 1.88 µM (inactive) in the experiment with CAKI-1; 3.25 µM (inactive) in the experiment with COLO 205; 1.78 µM (inactive) in the experiment with DMS-114; 16 µM (inactive) in the experiment on HCC 2998; 1.5 µM (inactive) with HL-60; 6.27 µM (inactive) with HOP-62. The GI50 is 2.33 µM (inactive) with MOLT-4; 1.78 µM (inactive) in the experiment on Malme-3M; 6.68 µM (inactive) with NCI-H226; 2.44 µM (inactive) in the experiment on OVCAR-3; 2.77 µM (inactive) in the experiment on OVCAR-4; 2.51 µM (inactive) in the experiment on RXF 393. Moreover, the GI50 is 5.97 µM (inactive) in the experiment with SF-295; 3.61 µM (inactive) in the experiment with SK-OV-3; 2.06 µM (inactive) in the experiment with SN12C; 10.8 µM (inactive) in the experiment on SNB-75; 2.51 µM (inactive) in the experiment with U-251.
`COc1cc2c(OC)cc1CSCc1sc(C)c(c1Br)CSC2`: the GI50 with CAKI-1 was > 100 µM (inactive); in the experiment on COLO 205, > 100 µM (inactive); with DMS-114, > 100 µM (inactive); in the experiment with HCC 2998, > 100 µM (inactive); with HL-60, 69.3 µM (inactive); with HOP-62, > 100 µM (inactive). Moreover, the GI50 in the experiment on MOLT-4, with Malme-3M, in the experiment with NCI-H226, in the experiment with OVCAR-3, in the experiment on OVCAR-4 and with RXF 393 was > 100 µM (inactive) throughout. The GI50 with SF-295 is > 100 µM (inactive); in the experiment with SK-OV-3, > 100 µM (inactive); in the experiment with SN12C it was > 100 µM (inactive); in the experiment with SNB-75, 74.1 µM (inactive); in the experiment on U-251 it was > 100 µM (inactive).
Consider `O=c1nc2occc2cn1C1CC(O)C(CO)O1` (configuration not stated), for which the GI50 with CAKI-1, in the experiment with COLO 205, in the experiment on DMS-114, in the experiment on HCC 2998, in the experiment with HL-60 and in the experiment on HOP-62 was > 100 µM (inactive) each time. Besides, the GI50 with MOLT-4, in the experiment with Malme-3M, with NCI-H226, in the experiment with OVCAR-3, in the experiment on OVCAR-4 and in the experiment on RXF 393 was > 100 µM (inactive) each time. The GI50 with SF-295, with SK-OV-3, in the experiment on SN12C, in the experiment with SNB-75 and in the experiment on U-251 was > 100 µM (inactive) in each case.
For the compound `O=NN(CCCl)C(=O)N[C@H]1CCCC[C@@H]1Cl`, the GI50 with CAKI-1 is > 100 µM (inactive); in the experiment with COLO 205, > 100 µM (inactive); in the experiment with DMS-114, 34.2 µM (inactive); in the experiment with HCC 2998 it was > 100 µM (inactive); in the experiment on HL-60, 19.6 µM (inactive); in the experiment on MOLT-4, 32.4 µM (inactive). In addition, the GI50 in the experiment with Malme-3M was > 100 µM (inactive); in the experiment on NCI-H226, > 100 µM (inactive); in the experiment on OVCAR-3, > 100 µM (inactive); in the experiment with OVCAR-4, > 100 µM (inactive); in the experiment on RXF 393, > 100 µM (inactive); in the experiment with SF-295 it was 47.1 µM (inactive). The GI50 is > 100 µM (inactive) with SK-OV-3, 88.1 µM (inactive) with SN12C, 47 µM (inactive) in the experiment with SNB-75 and 30.4 µM (inactive) with U-251.
In the case of `CCCCCCCCCCCC[N+](CCCCCCCCCCCC)=C1SCCS1`, the GI50 in the experiment with CAKI-1 was 12.8 µM (inactive); in the experiment with COLO 205, 8.04 µM (inactive); with DMS-114, 1.7 µM (inactive); in the experiment with HCC 2998 it was 10.3 µM (inactive); in the experiment with HL-60, 0.163 µM (active); in the experiment with HOP-62, 16.7 µM (inactive). Also, the GI50 in the experiment with MOLT-4 is 2.98 µM (inactive); in the experiment with Malme-3M, 6.64 µM (inactive); with NCI-H226 it was 14.2 µM (inactive); with OVCAR-3, 7.76 µM (inactive); with OVCAR-4, 3.6 µM (inactive); in the experiment with RXF 393, 3.45 µM (inactive). Further, the GI50 in the experiment with SF-295 was 3.05 µM (inactive); with SK-OV-3, 16.6 µM (inactive); in the experiment with SN12C it was 3.92 µM (inactive); in the experiment on SNB-75, 16 µM (inactive); in the experiment on U-251, 3.26 µM (inactive).
